Columns and labels:
[1] = xn = mol fraction of the nth substance listed; settings: 101 kPa, Liquid, Capillary tube (Ostwald / Ubbelohde) method
[2] = 101 kPa, Liquid, Capillary tube (Ostwald / Ubbelohde) method

Cc1cccc(C)c1 [1,3-dimethylbenzene] + CO
viscosity [mPa·s], [1]
Settings	x2 = 0	x2 = 0.1008	x2 = 0.2003	x2 = 0.2999	x2 = 0.4	x2 = 0.4997	x2 = 0.6003	x2 = 0.7001	x2 = 0.8001	x2 = 0.9012
303.15 K	0.554	0.539	0.542	0.548	0.553	0.56	0.566	0.57	0.565	0.546
308.15 K	0.524	0.51	0.51	0.514	0.519	0.526	0.53	0.532	0.526	0.509
313.15 K	0.498	0.483	0.483	0.485	0.488	0.493	0.496	0.497	0.492	0.477
318.15 K	0.472	0.456	0.456	0.457	0.46	0.462	0.465	0.466	0.46	0.445
323.15 K	0.452	0.435	0.433	0.433	0.434	0.437	0.437	0.437	0.432	0.419

CO [methanol]
[2]
Settings	viscosity [mPa·s]
303.15 K	0.513
308.15 K	0.48
313.15 K	0.45
318.15 K	0.422
323.15 K	0.397

Cc1ccccc1C [1,2-dimethylbenzene]
[2]
Settings	viscosity [mPa·s]
303.15 K	0.71
308.15 K	0.666
313.15 K	0.628
318.15 K	0.591
323.15 K	0.56

CO [methanol] + Cc1cccc(C)c1
[1], x1 = 1
Settings	viscosity [mPa·s]
303.15 K	0.513
308.15 K	0.48
313.15 K	0.45
318.15 K	0.422
323.15 K	0.397

Cc1ccccc1C [1,2-dimethylbenzene] + CO
viscosity [mPa·s], [1]
Settings	x2 = 0	x2 = 0.1007	x2 = 0.2013	x2 = 0.2961	x2 = 0.403	x2 = 0.5003	x2 = 0.601	x2 = 0.7025	x2 = 0.8006	x2 = 0.9013
303.15 K	0.71	0.684	0.674	0.671	0.666	0.663	0.655	0.638	0.61	0.567
308.15 K	0.666	0.641	0.631	0.626	0.621	0.617	0.607	0.595	0.567	0.53
313.15 K	0.628	0.603	0.591	0.587	0.582	0.577	0.569	0.554	0.531	0.495
318.15 K	0.591	0.566	0.555	0.55	0.543	0.538	0.531	0.516	0.494	0.462
323.15 K	0.56	0.535	0.523	0.517	0.511	0.506	0.496	0.484	0.462	0.434

Reference: the NIST ThermoML archive (doi:10.1021/acs.jced.7b00971)
